The subject of one data set is HepaRG cells. As to the kind of experiment: Drug toxicity test: deviation enzymes in culture supernatant, HepaRG cells. In kind it is cell-based, human. Particulars: cultured in the presence of D-GalN; FIG. 15(G). The protocol:
(§1) The HepaRG cells were cultured in accordance with the protocol of BIOPREDIC international. The HepG2 cells were purchased from Health Science Research Resources Bank, and the human primary cultured adult hepatocyte cell line was purchased from DS Pharma Biomedical Co., Ltd. (Osaka, Japan). They were cultured using a CS-C medium kit of Cell Systems Corporation (Kirkland, WA, USA). In the figure, 253G1 refers to a human iPS cell line established at Kyoto University, #40 refers to a human iPS cell line established at National Center for Child Health and Development, SeV refers to an iPS cell line induced using a SeV vector, ES-K1 refers to a human ES cell line established at Kyoto University, and CTL is an abbreviation of control.
(§2) D-Galactosamine (D-GalN), which is known to have toxicity to hepatocytes, was added to pluripotent stem cell-derived hepatocytes at a final concentration of 25 mM, followed by culture at 37° C. After 24 hours, 1.5 mL of culture supernatant was collected and was centrifuged at 15000 rpm at 4° C. to completely remove cell components. The concentrations of liver-derived deviation enzymes contained in the supernatant, i.e., glutamic oxaloacetic transaminase (GOT), glutamic pyruvic transaminase (GPT), γ-glutamyl transpeptidase (y-GTP), leucine aminopeptidase (LAP), lactate dehydrogenase (LDH), and LDH isozyme (LDH 1 to 5), were measured (performed at BML Inc., Shibuya, Tokyo, Japan).

Data set [1] deals with SeV-iPS-derived hepatocytes. As to the kind of experiment: Drug toxicity test: deviation enzymes in culture supernatant, SeV-iPS-derived hepatocytes. In kind it is cell-based, human. Particulars: cultured in the presence of D-GalN; FIG. 15(E). The protocol: as §2
Another data set deals with HepG2 cells. Briefly: Drug toxicity test: deviation enzymes in culture supernatant, HepG2 cells. In kind it is cell-based, human. Particulars: cultured in the presence of D-GalN; FIG. 15(H). The protocol: as §1, §2
Data set [2] deals with hepatocytes derived human iPS cells (#40). Briefly: Drug toxicity test: deviation enzymes in culture supernatant, human iPS cell-derived hepatocytes. In kind it is cell-based. Particulars: D-GalN 25 mM, 24 hours; FIG. 15(C). The protocol: as §2
Data set [3] relates to undifferentiated SeV-iPS cells. As to the kind of experiment: Drug toxicity test: deviation enzymes in culture supernatant, undifferentiated SeV-iPS cells. In kind it is cell-based, human. Particulars: cultured in the presence of D-GalN; FIG. 15(F).
Data set [4] relates to undifferentiated ES cells. As to the kind of experiment: Drug toxicity test: deviation enzymes in culture supernatant, undifferentiated human ES cells. In kind it is cell-based. Particulars: D-GalN 25 mM, 24 hours; FIG. 15(B).
Data set [5] concerns undifferentiated ES cells. As to the kind of experiment: Drug toxicity test: deviation enzymes in culture supernatant, undifferentiated cells of FIG. 15(D). In kind it is cell-based, human. Particulars: D-GalN 25 mM, 24 hours.
In data set [6] the test system is hepatocytes derived from human ES cells (KhES-1 cell line). Briefly: Drug toxicity test: liver deviation enzymes in culture supernatant, human ES cell-derived hepatocytes. In kind it is cell-based. Particulars: D-GalN 25 mM, 24 hours; hepatocytes 28th day from differentiation induction; FIG. 15(A). The protocol: as §2
For data set [7], the system named is hepatocytes derived from a #40 cell line. As to the kind of experiment: PGE1 pretreatment before D-GalN administration: deviation enzymes in culture supernatant. Particulars: 4 mM PGE1 pretreatment, 37° C. for 4 hours, then D-GalN administration; FIG. 16. In kind it is cell-based, human. The protocol: as §2
That is, 4 mM PGE1 was added to hepatocytes derived from a #40 cell line in advance, and the hepatocytes were cultured at 37° C. for 4 hours and were subjected to a D-GalN administration experiment as in above. […] Similar tendencies were detected in the samples of hepatocyte differentiation induction from other human iPS cell lines and human ES cell lines.

Regarding `N[C@H]1C(O)O[C@H](CO)[C@H](O)[C@@H]1O` (stereo partly drawn) [D-GalN, D-Galactosamine], in the data set on HepaRG cells, the “level of GOT in the culture supernatant” value is “increased”, the “level of GPT in the culture supernatant” value is “increased”, the “level of LAP in the culture supernatant” value is on record as “increased” and the “level of LDH-5 in the culture supernatant” value was “increased”. Besides, the “level of γ-GTP in the culture supernatant” value in the data set with HepaRG cells is reported as “did not increase”. The “level of GOT in the culture supernatant” value in data set [1] is “increased”. Further, in the data set on HepG2 cells, the “level of GOT in the culture supernatant” value is reported as “increased”, the “level of GPT in the culture supernatant” value is “increased”, the “level of LAP in the culture supernatant” value is “did not increase” and the “level of LDH-5 in the culture supernatant” value was “increased”. Moreover, the “level of γ-GTP in the culture supernatant” value in the data set on HepG2 cells is “did not increase”. Besides, in data set [2], the LDH isozyme pattern entry was ““liver damage-type” pattern in which type 4 and type 5 are dominant”; the “level of GOT in culture supernatant” value is reported as “increased”; the “level of GPT in culture supernatant” value was “increased”; the “level of LAP in culture supernatant” value is reported as “increased”. In [2], the “level of LDH in culture supernatant” value is “increased” and the “level of γ-GTP in culture supernatant” value is “increased”. Moreover, the “level of GOT in the culture supernatant” value in data set [3] is recorded as “did not increase”. For the same compound, the “levels of all of the deviation enzymes in culture supernatant” value in [4] was “did not increase”. In data set [5], the “level of GOT in culture supernatant” value was “did not increase”, the “level of GPT in culture supernatant” value is on record as “did not increase”, the “level of LAP in culture supernatant” value was “did not increase” and the “level of LDH in culture supernatant” value is on record as “did not increase”. Besides, in data set [5], the “level of γ-GTP in culture supernatant” value is on record as “did not increase”. Moreover, in data set [6], the LDH isozyme pattern result is ““liver damage-type” pattern in which type 4 and type 5 are dominant”; the “level of GOT in culture supernatant” value was “increased”; the “level of LAP in culture supernatant” value is listed as “increased”; the “level of LDH in culture supernatant” value was “increased”. Besides, the “level of γ-GTP in culture supernatant” value in [6] was “increased”.
Take `CCCCC[C@H](O)/C=C/[C@H]1[C@H](O)CC(=O)[C@@H]1CCCCCCC(=O)O` [PGE1, prostaglandin E1]: the “levels of all the deviation enzymes from the liver detected in the culture supernatant after D-GalN” value in data set [7] is on record as “significantly suppressed”.

The record behind these values is patent US20190194607A1, “HIGHLY FUNCTIONAL LIVER CELLS DERIVED FROM PLURIPOTENT STEM CELLS, METHOD FOR PRODUCING SAME, AND METHOD FOR TESTING METABOLISM/TOXICITY OF DRUG” (DNAVEC CORPORATION, priority 2011, published 2019).
